According to US20250236642A1, “PHARMACEUTICAL COMPOSITION FOR TREATMENT OR PREVENTION OF ADULT T-CELL LEUKEMIA” (NEC Corporation, priority 2022, published 2025):
Where two headings read alike, the source gives them in different places. No end group written: not given here.

How the values were obtained:
HLA-A*24:02 molecule = HLA-A*24:02 molecule (Homo sapiens, UniProt P04439, D101N/D140Y/D185E/E176V/E190D/F33S/G103R/G107R/I119L/I121M/I306V/K335N/L105A/L180Q/L300P/N151K/N90K/Q86E/Q94H/R106L/R138H/R89G/T104I/T345S/V100E/W191G/Y123F); assay: Binding of peptide to HLA-A*24:02 molecule using C1R-A24 cells
Procedure: Measurement of binding ability of a peptide to an HLA-A*24:02 molecule, which is a product of an HLA-A*24:02 gene, was performed using C1R-A24 cells expressing an HLA-A*24:02 molecule (Cells created by Professor Masafumi Takiguchi, Kumamoto University, was provided by Assistant Professor Masaki Yasukawa, Ehime University, with permission).
First, the C1R-A24 cells were exposed to acidic conditions at pH 3.3 for 30 seconds to dissociate and remove an endogenous peptide originally binding to an HLA-A*24:02 molecule and light chain β2m commonly associated with an HLA class I molecule. After neutralization, purified β2m was added to the C1R-A24 cells, and the mixture was added to a peptide dilution series and incubated on ice for four hours.
Thereafter, the number of MHC-peps for each C1R-A24 cell (proportional to a fluorescence intensity of the fluorescent antibody) was quantitatively measured using a fluorescence cell analyzer FACScan (Becton-Dickinson).

HLA-A*02:01 molecule = molecular target: T1, HLA-A*02:01 molecule (Homo sapiens, UniProt P04439, D140Y/D185E/D98H/E176V/E277Q/G131W/G231S/I119V/I121R/I166T/I218V/L300P/L318F/N151K/N90K/P208A/P217A/Q86G/Q94H/R138H/R169H/T345S); assay: Binding of peptide to HLA-A*02:01 molecule using cell line T2
T1 construct: using a cell line T2 (purchased from ATCC) expressing an HLA-A*02:01 molecule; host or cells: T2 cell line
Procedure: Measurement of binding ability of a peptide to an HLA-A*02:01 molecule, which is a product of an HLA-A*02:01 gene, was performed using a cell line T2 (purchased from ATCC) expressing an HLA-A*02:01 molecule.
T2 cells and purified β2m were added to a serial dilution series of a peptide whose binding ability was to be measured, and then the mixture was incubated at 37° C. for four hours. HLA-A*02:01 molecules whose expression level increased in a peptide concentration-dependent manner by this time point were stained using an association-type specific fluorescently labeled monoclonal antibody BB7.2.
Thereafter, the amount of fluorescence per cell was measured with a flow cytometer, and a dissociation constant Kd value was calculated by the method disclosed in the article (Udaka et al., Immunogenetics, 51, 816-828, 2000) by the present inventor.

HLA-A*02:06 molecule = molecular target: T2, HLA-A*02:06 molecule (Homo sapiens, UniProt P04439, D140Y/D185E/D98H/E176V/E277Q/F33Y/G131W/G231S/I119V/I121R/I166T/I218V/L300P/L318F/N151K/N90K/P208A/P217A/Q86G/Q94H/R138H/R169H/T345S); assay: Binding of peptide to HLA-A*02:06 molecule using RA2.6 cells
T2 construct: expressed in transfected cells; host or cells: RA2.6 cells (mouse TAP-deficient RMAS with HLA-A*02:06 cDNA)
Procedure: Measurement of binding ability of a peptide to an HLA-A*02:06 molecule, which is a product of an HLA-A*02:06 gene, was performed using RA2.6 cells (a cell line newly created at Kochi University) obtained by introducing cDNA of the HLA-A*02:06 gene into RMAS, which is a mouse transporter associated with antigen processing (TAP)-deficient cell line.
A fluorescently labeled monoclonal antibody BB7.2 that specifically recognizes a peptide binding type HLA-A*02:06 molecule was added thereto, and the mixture was incubated on ice for 20 minutes to stain the cells.

[1] = Table 2, dissociation constant Kd value (−log Kd value), >−3.0 = no significant binding ability, read-out: Measured value of allele A*24:02 (converted)
[2] = Table 4, Kd value (−log Kd value), smaller than −3 = binding property, read-out: Measured value of allele A*24:02 (converted)
[3] = Table 2, dissociation constant Kd value (−log Kd value), >−3.0 = no significant binding ability, read-out: Measured value of allele A*02:01 (converted)
[4] = Table 2, dissociation constant Kd value (−log Kd value), >−3.0 = no significant binding ability, read-out: Measured value of allele A*02:06 (converted)
[5] = Table 4, Kd value (−log Kd value), smaller than −3 = binding property, read-out: Measured value of allele A*02:01 (converted)

Sequence | Kd (HLA-A*24:02 molecule; [1]) [µM] | Kd (HLA-A*24:02 molecule; [2]) [µM] | Kd (HLA-A*02:01 molecule; [3]) [µM] | Kd (HLA-A*02:06 molecule; [4]) [µM] | other results
STGESAQTS [compound 71] | > 1000 | > 1000 | > 1000 | > 1000 | 
THLDAGTVE [compound 75] | > 1000 | > 1000 | > 1000 | > 1000 | 
TLTAWQHGL [compound 33] |  |  |  |  | Kd (HLA-A*24:02 molecule): 20.1 µM; Kd (HLA-A*02:01 molecule): 1.11 µM; Kd (HLA-A*02:06 molecule): 1.42 µM
TVLVPPRNL [compound 48] | 5.36 | 5.36 | > 1000 | > 1000 | Kd (HLA-A*02:01 molecule; [5]): > 1000 µM; Measured value of allele A*02:06 (HLA-A*02:06 molecule; Table 4, Kd value (−log Kd value), smaller than −3 = binding property): >−3
VFGRVMQID [compound 66] | 3.87 |  | > 1000 | > 1000 | 
VLLQQFQTA [compound 15] | 2.81 |  | 19.3 | 3.4 | 
VLPPARHST [compound 54] | > 1000 | > 1000 | 7.73 | > 1000 | 
VMQIDGVQP [compound 67] | > 1000 | > 1000 | > 1000 | 389 | 
VMSHHGEKL [compound 19] | 0.793 |  | 8.32 | 50.4 | 
YFFTVIFSF [compound 44] | 0.168 |  | > 1000 | > 39.8 | 
YLYDPPTTI [compound 4] | 0.692 |  | 0.583 | 1.36 | 
YPGWHSTTI [compound 52] | 2.18 |  |  | > 1000 | Kd (HLA-A*02:01 molecule): > 1000 µM
YQLSPPITW [compound 32] |  |  |  |  | Kd (HLA-A*24:02 molecule; Measured value of allele A*24:02, Table 2, dissociation constant Kd value (−log Kd value), >−3.0 = no significant binding ability): 1.72 µM; Kd (HLA-A*24:02 molecule; Measured value of allele A*24:02, Table 4, Kd value (−log Kd value), smaller than −3 = binding property): 0.172 µM; Kd (HLA-A*02:01 molecule): 351 µM; Kd (HLA-A*02:06 molecule): 1.78 µM
YTYDPPTTI [compound 3] | 3.11 |  | 0.336 |  | Kd (HLA-A*02:01 molecule; [5]): 3.36 µM; Kd (HLA-A*02:06 molecule; Table 4, Kd value (−log Kd value), smaller than −3 = binding property, read-out: Measured value of allele A*02:06 (converted)): 0.669 µM
YVYDPPTTI [compound 2] | 0.584 |  | 0.696 | 2.8 | 
